Read-outs that look alike come from different tables or passages of the source.
Tests used:
Experiment in all cases: TGFα-shedding assay-based GPCR screening with chimeric Gα subunit proteins
Format in all cases: cell-based
348 GPCRs [1] = molecular target: T1, 348 GPCRs (Homo sapiens, UniProt Q9NYW0); settings: 10µM, Favipiravir 100μM
T1 construct: expressed in transfected cells; host or cells: HEK293A
T1 sequence (Q9NYW0 1-307): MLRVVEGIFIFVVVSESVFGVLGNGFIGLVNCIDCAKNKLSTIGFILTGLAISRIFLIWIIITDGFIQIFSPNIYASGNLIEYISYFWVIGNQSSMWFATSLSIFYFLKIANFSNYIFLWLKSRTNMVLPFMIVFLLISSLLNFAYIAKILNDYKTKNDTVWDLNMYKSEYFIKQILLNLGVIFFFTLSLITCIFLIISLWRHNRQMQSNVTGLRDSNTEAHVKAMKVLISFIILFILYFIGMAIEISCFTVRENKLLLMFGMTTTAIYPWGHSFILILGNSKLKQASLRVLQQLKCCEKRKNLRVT

348 GPCRs [2] = molecular target: T2, 348 GPCRs (Homo sapiens, UniProt Q96P69); settings: 10µM, Favipiravir 100μM
T2 construct: expressed in transfected cells; host or cells: HEK293A

348 GPCRs [3] = molecular target: T3, 348 GPCRs (Homo sapiens, UniProt P41968); settings: 10µM
T3 construct: expressed in transfected cells; host or cells: HEK293A

348 GPCRs [4] = molecular target: T4, 348 GPCRs (Homo sapiens, UniProt Q6NV75); settings: 10µM, Favipiravir 100μM
T4 construct: expressed in transfected cells; host or cells: HEK293A

348 GPCRs [5] = molecular target: T5, 348 GPCRs (Homo sapiens, UniProt P51679); settings: 10µM, Favipiravir 100μM
T5 construct: expressed in transfected cells; host or cells: HEK293A
T5 sequence (P51679 1-360): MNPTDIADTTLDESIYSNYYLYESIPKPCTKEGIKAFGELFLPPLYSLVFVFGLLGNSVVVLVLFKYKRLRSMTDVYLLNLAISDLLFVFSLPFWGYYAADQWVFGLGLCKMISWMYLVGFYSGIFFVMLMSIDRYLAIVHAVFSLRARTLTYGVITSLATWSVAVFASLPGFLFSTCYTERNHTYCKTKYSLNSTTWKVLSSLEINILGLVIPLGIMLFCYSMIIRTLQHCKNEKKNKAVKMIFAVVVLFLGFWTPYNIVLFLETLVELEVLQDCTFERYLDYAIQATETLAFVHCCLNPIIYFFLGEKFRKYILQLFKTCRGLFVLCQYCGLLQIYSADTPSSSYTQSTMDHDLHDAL

348 GPCRs [6] = molecular target: T6, 348 GPCRs (Homo sapiens, UniProt O00574); settings: 10µM
T6 construct: expressed in transfected cells; host or cells: HEK293A

348 GPCRs [7] = molecular target: T7, 348 GPCRs (Homo sapiens, UniProt P51582); settings: 10µM
T7 construct: expressed in transfected cells; host or cells: HEK293A

348 GPCRs [8] = molecular target: T8, 348 GPCRs (Homo sapiens, UniProt P35367); settings: 10µM, Favipiravir 100μM
T8 construct: expressed in transfected cells; host or cells: HEK293A

348 GPCRs [9] = molecular target: T9, 348 GPCRs (Homo sapiens, UniProt P18089); settings: 10µM
T9 construct: expressed in transfected cells; host or cells: HEK293A
T9 sequence (P18089 1-450): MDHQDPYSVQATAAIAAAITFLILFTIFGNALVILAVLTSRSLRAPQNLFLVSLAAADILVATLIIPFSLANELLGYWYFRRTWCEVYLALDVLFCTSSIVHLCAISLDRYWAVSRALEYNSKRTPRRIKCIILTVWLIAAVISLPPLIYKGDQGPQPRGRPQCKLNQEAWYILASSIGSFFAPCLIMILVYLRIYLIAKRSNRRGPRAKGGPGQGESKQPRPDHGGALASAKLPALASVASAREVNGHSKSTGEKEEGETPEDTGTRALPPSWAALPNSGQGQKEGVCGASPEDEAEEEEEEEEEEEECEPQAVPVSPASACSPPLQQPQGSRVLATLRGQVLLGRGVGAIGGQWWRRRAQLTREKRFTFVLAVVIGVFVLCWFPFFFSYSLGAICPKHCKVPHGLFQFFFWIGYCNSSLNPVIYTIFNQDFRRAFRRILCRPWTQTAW

348 GPCRs [10] = molecular target: 348 GPCRs (Homo sapiens, UniProt P14416); settings: 10µM, Favipiravir 100μM
348 GPCRs [11] = molecular target: 348 GPCRs (Homo sapiens, UniProt P30989); settings: 10µM, Favipiravir 100μM
348 GPCRs [12] = molecular target: T10, 348 GPCRs (Homo sapiens, UniProt P28336); settings: 10µM, Favipiravir 100μM
T10 construct: expressed in transfected cells; host or cells: HEK293A

348 GPCRs [13] = molecular target: T11, 348 GPCRs (Homo sapiens, UniProt Q96LB2); settings: 10µM, Favipiravir 100μM
T11 construct: expressed in transfected cells; host or cells: HEK293A

348 GPCRs [14] = molecular target: T12, 348 GPCRs (Homo sapiens, UniProt P46095); settings: 10µM
T12 construct: expressed in transfected cells; host or cells: HEK293A

348 GPCRs [15] = molecular target: T13, 348 GPCRs (Homo sapiens, UniProt Q9Y3P9); settings: 10µM, Favipiravir 100μM
T13 construct: expressed in transfected cells; host or cells: HEK293A

348 GPCRs [16] = molecular target: T14, 348 GPCRs (Homo sapiens, UniProt Q8NFJ5); settings: 10µM, Favipiravir 100μM
T14 construct: expressed in transfected cells; host or cells: HEK293A

T4 sequence (Q6NV75 whole entry): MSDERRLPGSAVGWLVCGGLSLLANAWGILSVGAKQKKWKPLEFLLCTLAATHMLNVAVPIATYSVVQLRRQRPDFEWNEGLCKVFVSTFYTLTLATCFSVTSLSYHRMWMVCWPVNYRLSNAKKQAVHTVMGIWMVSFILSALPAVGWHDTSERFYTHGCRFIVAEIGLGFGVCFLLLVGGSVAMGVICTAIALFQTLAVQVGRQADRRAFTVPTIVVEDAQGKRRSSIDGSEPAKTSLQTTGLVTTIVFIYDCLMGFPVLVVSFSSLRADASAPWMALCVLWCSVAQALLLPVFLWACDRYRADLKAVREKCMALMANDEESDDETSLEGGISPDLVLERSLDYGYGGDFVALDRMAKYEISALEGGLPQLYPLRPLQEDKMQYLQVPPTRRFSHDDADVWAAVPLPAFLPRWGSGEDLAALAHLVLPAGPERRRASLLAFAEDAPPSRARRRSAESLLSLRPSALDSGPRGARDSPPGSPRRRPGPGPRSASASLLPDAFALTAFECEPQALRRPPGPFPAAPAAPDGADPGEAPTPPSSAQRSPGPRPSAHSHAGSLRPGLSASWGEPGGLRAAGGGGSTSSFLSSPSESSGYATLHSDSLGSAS
T2 sequence (Q96P69 whole entry): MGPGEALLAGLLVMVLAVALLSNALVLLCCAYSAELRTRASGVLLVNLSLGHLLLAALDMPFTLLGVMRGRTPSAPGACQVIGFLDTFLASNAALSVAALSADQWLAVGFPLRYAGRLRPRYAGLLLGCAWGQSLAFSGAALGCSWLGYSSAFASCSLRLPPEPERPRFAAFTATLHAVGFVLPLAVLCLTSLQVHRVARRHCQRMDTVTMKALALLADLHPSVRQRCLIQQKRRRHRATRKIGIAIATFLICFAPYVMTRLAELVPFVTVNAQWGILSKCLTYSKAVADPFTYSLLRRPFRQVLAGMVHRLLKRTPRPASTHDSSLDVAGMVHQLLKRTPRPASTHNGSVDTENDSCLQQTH
T10 sequence (P28336 whole entry): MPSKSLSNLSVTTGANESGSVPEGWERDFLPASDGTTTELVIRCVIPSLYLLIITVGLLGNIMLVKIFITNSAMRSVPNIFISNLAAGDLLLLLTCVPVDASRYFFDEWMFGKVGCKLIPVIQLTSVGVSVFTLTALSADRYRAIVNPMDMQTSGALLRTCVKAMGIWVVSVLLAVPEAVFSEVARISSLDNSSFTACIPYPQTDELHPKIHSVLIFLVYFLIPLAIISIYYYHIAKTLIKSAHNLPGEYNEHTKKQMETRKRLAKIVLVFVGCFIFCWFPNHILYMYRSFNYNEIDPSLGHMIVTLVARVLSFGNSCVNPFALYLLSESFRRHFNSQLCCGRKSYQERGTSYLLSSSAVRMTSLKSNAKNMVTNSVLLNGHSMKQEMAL
Chain of 348 GPCRs (Homo sapiens, UniProt P14416) (P14416 whole entry): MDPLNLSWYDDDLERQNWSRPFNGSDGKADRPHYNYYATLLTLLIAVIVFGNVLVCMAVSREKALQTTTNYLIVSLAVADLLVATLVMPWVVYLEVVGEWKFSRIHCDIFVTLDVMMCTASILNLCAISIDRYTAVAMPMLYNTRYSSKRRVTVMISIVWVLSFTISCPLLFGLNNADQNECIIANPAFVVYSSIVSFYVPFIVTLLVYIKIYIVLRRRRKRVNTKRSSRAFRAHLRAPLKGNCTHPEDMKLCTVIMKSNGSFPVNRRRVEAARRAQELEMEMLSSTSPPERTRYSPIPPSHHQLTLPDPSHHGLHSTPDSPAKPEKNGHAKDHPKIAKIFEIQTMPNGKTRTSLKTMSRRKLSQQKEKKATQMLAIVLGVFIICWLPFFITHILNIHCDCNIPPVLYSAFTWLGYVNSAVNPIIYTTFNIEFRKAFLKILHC
T3 sequence (P41968 whole entry): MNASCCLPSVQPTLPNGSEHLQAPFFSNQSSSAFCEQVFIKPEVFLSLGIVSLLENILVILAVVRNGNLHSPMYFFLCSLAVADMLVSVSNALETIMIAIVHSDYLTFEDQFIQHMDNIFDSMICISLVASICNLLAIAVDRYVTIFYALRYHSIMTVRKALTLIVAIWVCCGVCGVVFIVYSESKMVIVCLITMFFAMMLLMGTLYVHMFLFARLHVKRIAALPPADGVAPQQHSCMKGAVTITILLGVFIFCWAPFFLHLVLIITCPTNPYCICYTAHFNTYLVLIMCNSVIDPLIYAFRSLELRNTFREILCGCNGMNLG
T11 sequence (Q96LB2 whole entry): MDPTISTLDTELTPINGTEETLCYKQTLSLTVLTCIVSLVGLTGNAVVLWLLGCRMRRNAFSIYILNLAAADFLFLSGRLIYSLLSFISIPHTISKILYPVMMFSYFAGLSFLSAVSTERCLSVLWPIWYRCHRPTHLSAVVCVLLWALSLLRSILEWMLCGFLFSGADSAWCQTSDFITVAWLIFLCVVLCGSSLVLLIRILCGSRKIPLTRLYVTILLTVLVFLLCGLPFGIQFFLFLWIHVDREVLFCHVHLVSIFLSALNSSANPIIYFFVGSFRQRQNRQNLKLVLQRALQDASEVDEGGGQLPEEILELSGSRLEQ
T6 sequence (O00574 whole entry): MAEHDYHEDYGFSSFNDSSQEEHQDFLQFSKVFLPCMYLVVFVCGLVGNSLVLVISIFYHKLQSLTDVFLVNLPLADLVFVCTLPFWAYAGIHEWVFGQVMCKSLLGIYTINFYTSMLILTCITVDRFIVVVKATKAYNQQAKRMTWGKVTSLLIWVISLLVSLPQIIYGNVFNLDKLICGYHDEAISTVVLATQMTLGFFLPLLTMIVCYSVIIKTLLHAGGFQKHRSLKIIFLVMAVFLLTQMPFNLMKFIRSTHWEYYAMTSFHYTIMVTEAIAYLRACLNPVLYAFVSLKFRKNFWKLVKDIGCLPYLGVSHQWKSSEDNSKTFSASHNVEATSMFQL
T8 sequence (P35367 whole entry): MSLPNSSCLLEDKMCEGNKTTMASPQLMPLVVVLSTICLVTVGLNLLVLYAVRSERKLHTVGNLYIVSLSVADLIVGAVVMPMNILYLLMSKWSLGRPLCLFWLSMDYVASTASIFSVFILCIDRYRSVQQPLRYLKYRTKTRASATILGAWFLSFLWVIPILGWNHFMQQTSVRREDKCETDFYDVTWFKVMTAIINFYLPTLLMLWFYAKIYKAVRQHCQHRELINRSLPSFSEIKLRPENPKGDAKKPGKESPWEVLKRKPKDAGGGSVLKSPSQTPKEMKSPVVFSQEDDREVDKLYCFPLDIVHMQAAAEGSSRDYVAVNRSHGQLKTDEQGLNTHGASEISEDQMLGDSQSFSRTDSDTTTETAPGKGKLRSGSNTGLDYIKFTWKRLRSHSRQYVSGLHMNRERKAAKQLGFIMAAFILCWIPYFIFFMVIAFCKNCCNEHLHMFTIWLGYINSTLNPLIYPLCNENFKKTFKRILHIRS
T13 sequence (Q9Y3P9 whole entry): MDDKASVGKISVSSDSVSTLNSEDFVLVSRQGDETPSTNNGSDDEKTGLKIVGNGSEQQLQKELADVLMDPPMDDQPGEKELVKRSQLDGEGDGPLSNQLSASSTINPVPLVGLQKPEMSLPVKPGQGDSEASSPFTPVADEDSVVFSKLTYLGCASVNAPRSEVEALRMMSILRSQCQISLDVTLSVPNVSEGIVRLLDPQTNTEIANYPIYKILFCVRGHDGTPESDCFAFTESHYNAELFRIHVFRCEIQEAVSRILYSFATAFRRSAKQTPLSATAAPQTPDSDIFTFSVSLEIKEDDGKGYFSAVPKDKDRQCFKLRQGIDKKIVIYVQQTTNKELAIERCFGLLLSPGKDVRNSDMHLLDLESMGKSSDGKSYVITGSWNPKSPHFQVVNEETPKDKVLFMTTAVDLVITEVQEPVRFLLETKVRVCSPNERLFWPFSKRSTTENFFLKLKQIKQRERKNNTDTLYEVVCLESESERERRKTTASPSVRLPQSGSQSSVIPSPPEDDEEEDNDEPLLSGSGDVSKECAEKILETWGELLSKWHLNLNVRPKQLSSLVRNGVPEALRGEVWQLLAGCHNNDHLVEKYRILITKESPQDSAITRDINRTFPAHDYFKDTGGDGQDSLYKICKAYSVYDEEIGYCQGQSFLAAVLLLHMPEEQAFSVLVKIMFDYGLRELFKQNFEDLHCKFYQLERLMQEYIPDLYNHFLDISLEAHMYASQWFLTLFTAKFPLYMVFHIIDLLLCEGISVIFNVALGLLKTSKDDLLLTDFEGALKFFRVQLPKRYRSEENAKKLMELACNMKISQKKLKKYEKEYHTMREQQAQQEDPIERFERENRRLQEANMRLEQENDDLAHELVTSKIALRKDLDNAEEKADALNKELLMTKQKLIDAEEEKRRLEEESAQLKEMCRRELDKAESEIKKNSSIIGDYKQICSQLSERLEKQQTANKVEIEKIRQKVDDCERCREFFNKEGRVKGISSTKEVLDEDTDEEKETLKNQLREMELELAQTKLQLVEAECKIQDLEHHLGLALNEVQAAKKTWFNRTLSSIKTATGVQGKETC
Chain of 348 GPCRs (Homo sapiens, UniProt P30989) (P30989 whole entry): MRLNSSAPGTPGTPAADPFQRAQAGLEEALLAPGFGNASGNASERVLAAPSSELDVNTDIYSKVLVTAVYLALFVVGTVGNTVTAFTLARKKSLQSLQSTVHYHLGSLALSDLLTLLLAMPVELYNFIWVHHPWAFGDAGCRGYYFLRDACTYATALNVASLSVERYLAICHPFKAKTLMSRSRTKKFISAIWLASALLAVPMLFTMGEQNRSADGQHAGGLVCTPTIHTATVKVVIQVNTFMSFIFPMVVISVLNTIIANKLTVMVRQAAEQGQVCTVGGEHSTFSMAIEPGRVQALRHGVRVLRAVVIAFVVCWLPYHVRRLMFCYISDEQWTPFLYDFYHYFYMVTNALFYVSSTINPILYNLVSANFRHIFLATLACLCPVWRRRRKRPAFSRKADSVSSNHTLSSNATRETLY

Molecule N#C[C@@]1(c2ccc3c(N)ncnn23)O[C@H](CO)[C@@H](O)[C@H]1O [GS441524] has an activation at 100 µM (348 GPCRs [1]; TAS2R10 (taste receptor, type 2, member 10), read-out: % GPCR activation compared to TPA) of 0.66%, an activation at 100 µM (348 GPCRs [2]; GPR78 (G Protein-Coupled Receptor 78), read-out: % GPCR activation compared to TPA) of 0.894% and an activation at 10 µM (348 GPCRs [3]; GPCR MC3R (melanocortin 3 receptor), read-out: % GPCR activation compared to TPA) of 2.26%. The activation at 10 µM (348 GPCRs [4]; GPR153 (G protein-coupled receptor 153), read-out: % GPCR activation compared to TPA) was -3.34%, the activation at 100 µM (348 GPCRs [5]; CCR4 (C-C motif chemokine receptor 4), read-out: % GPCR activation compared to TPA) was -0.385% and the activation at 10 µM (348 GPCRs [6]; GPCR CXCR6 (C-X-C motif chemokine receptor 6), read-out: % GPCR activation compared to TPA) was -0.956%. For the same molecule, the activation at 10 µM (348 GPCRs [7]; GPCR P2Y4 (pyrimidinergic receptor P2Y, G-protein coupled, 4), read-out: % GPCR activation compared to TPA) was -5.06%, the activation at 10 µM (348 GPCRs [8]; H1 (histamine receptor H1), read-out: % GPCR activation compared to TPA) was -5.47% and the activation at 10 µM (348 GPCRs [9]; GPCR α2B (adrenoceptor alpha 2B), read-out: % GPCR activation compared to TPA) was -2.28%. For the same molecule, the activation at 100 µM (348 GPCRs [10]; D2 (dopamine receptor D2), read-out: % GPCR activation compared to TPA) was 4.14%, the activation at 100 µM (348 GPCRs [11]; NTSR1(CO) (neurotensin receptor 1), read-out: % GPCR activation compared to TPA) was -0.341% and the activation at 10 µM (348 GPCRs [12]; NMBR (neuromedin B receptor), read-out: % GPCR activation compared to TPA) was -1.1%. It also gave an activation at 100 µM (348 GPCRs [13]; MRGPRX1 (MAS-related GPR, member X1), read-out: % GPCR activation compared to TPA) of -1.59%, an activation at 10 µM (348 GPCRs [14]; GPCR GPR6 (G protein-coupled receptor 6), read-out: % GPCR activation compared to TPA) of 5.11% and an activation at 100 µM (348 GPCRs [15]; RABGAP1 (Rab GTPase-activating protein 1), read-out: % GPCR activation compared to TPA) of -1.83%. For the same molecule, the activation at 100 µM (348 GPCRs [16]; GPRC5A (G protein-coupled receptor class C group 5 member A), read-out: % GPCR activation compared to TPA) was 6.76%.

In the case of CCC(CC)COC(=O)[C@H](C)N[P@](=O)(OC[C@H]1O[C@@](C#N)(c2ccc3c(N)ncnn23)[C@H](O)[C@@H]1O)Oc1ccccc1 [remdesivir], the activation at 100 µM (348 GPCRs [1]; read-out: % GPCR activation compared to TPA, TAS2R10 (taste receptor, type 2, member 10)) is reported as 1.89%, the activation at 100 µM (348 GPCRs [2]; read-out: % GPCR activation compared to TPA, GPR78 (G Protein-Coupled Receptor 78)) is reported as 2.44% and the activation at 10 µM (348 GPCRs [3]; read-out: % GPCR activation compared to TPA, GPCR MC3R (melanocortin 3 receptor)) is reported as 1.7%. For the same molecule, the activation at 10 µM (348 GPCRs [4]; read-out: % GPCR activation compared to TPA, GPR153 (G protein-coupled receptor 153)) was 4.65%, the activation at 100 µM (348 GPCRs [5]; read-out: % GPCR activation compared to TPA, CCR4 (C-C motif chemokine receptor 4)) was 1.77% and the activation at 10 µM (348 GPCRs [6]; read-out: % GPCR activation compared to TPA, GPCR CXCR6 (C-X-C motif chemokine receptor 6)) was 0.837%. It also gave an activation at 10 µM (348 GPCRs [7]; read-out: % GPCR activation compared to TPA, GPCR P2Y4 (pyrimidinergic receptor P2Y, G-protein coupled, 4)) of -0.00402%, an activation at 10 µM (348 GPCRs [8]; read-out: % GPCR activation compared to TPA, H1 (histamine receptor H1)) of -3.69% and an activation at 10 µM (348 GPCRs [9]; read-out: % GPCR activation compared to TPA, GPCR α2B (adrenoceptor alpha 2B)) of 5.93%. It also gave an activation at 100 µM (348 GPCRs [10]; read-out: % GPCR activation compared to TPA, D2 (dopamine receptor D2)) of 6.53%, an activation at 100 µM (348 GPCRs [11]; read-out: % GPCR activation compared to TPA, NTSR1(CO) (neurotensin receptor 1)) of -1.56% and an activation at 10 µM (348 GPCRs [12]; read-out: % GPCR activation compared to TPA, NMBR (neuromedin B receptor)) of 0.461%. The activation at 100 µM (348 GPCRs [13]; read-out: % GPCR activation compared to TPA, MRGPRX1 (MAS-related GPR, member X1)) was 0.23%, the activation at 10 µM (348 GPCRs [14]; read-out: % GPCR activation compared to TPA, GPCR GPR6 (G protein-coupled receptor 6)) was 7.41% and the activation at 100 µM (348 GPCRs [15]; read-out: % GPCR activation compared to TPA, RABGAP1 (Rab GTPase-activating protein 1)) was -0.577%. The activation at 100 µM (348 GPCRs [16]; read-out: % GPCR activation compared to TPA, GPRC5A (G protein-coupled receptor class C group 5 member A)) was 9.99%.

Source: article PMC10175918 (Communications Biology, 2023)
